Legend:
[1] = biological target: T1, wt human LRRK2, catalytic site (Homo sapiens, UniProt Q5S007); assay: TR-FRET LanthaScreen Tb Kinase Activity Assay, LRRK2 kinase inhibition; format: biochemical; conditions: 2 nM wt human LRRK2, 400 nM peptide, 38 μM ATP
T1 construct: wt human LRRK2, catalytic site, catalytic site (ThermoFisher/USA); purchased ThermoFisher
Procedure, shortened: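 TR-FRET LanthaScreen format: 2 nM wt human LRRK2 catalytic domain with 400 nM fluorescein-ERM (LRRKtide) and 38 μM ATP in Kinase Buffer A, after 15 min compound preincubation. Reaction 120 min at RT, then EDTA plus Tb-anti-pLRRKtide antibody for 60 min; emission ratios analysed per kit protocol.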

Caco-2 cells = assay: Caco-2 bidirectional permeability; format: in vitro ADME; conditions: for Caco-2 A2B (10^−6 cm/s): A to B; for Caco-2 A2B (10^−6 cm/s) / Caco-2 B2A (10^−6 cm/s): HBSS pH 7.4, 2 hours; for Caco-2 B2A (10^−6 cm/s): B to A; for Caco-2 ER: Efflux Ratio=Papp (BA)/Papp (AB)
Procedure, shortened: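 Caco-2 monolayers grown 21–28 days on PET inserts were run in duplicate in HBSS with 10 mM HEPES, pH 7.4. Compound was tested in both directions at […] for 2 h at 37 °C and quantified by LC-MS/MS. Papp, % recovery and efflux ratio (B-A/A-B) were calculated, with lucifer yellow checking monolayer integrity.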

T1 sequence (Q5S007 1879-2138 limits assumed): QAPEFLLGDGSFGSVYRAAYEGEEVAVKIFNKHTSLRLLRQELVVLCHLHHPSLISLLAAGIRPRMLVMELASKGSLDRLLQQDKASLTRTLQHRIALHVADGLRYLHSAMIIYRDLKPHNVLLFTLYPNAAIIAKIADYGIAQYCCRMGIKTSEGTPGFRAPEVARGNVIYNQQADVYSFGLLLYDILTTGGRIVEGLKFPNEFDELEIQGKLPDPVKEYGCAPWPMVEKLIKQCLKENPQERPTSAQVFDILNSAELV

IC50 [1] | Caco-2 A2B (10^−6 cm/s) (Caco-2 cells) | Caco-2 B2A (10^−6 cm/s) (Caco-2 cells) | Caco-2 ER (Caco-2 cells) | SMILES
< 2 nM | H (H (High permeability)”: A2B (B2A)>5) | H (H (High permeability)”: A2B (B2A)>5) | N (N (Non-substrate)”: ER<2.5) | Cc1n[nH]c2c1N=C(c1c(F)cccc1F)Nc1c-2cc(N2CCN(CC(C)F)CC2)nc1C (racemic) [Example 20, 8-(2,6-difluorophenyl)-13-[4-(2-fluoropropyl)piperazin-1-yl]-5,11-dimethyl-3,4,7,9,12-pentazatricyclo[8.4.0.02,6]tetradeca-1(10),2(6),4,7,11,13-hexaene]
< 2 nM | H (H (High permeability)”: A2B (B2A)>5) | H (H (High permeability)”: A2B (B2A)>5) | N (N (Non-substrate)”: ER<2.5) | Cc1n[nH]c2c1N=C(c1c(F)cccc1F)Nc1c-2cc(N2CCN(CCF)C[C@H]2C)nc1C (single isomer, unassigned) [Example 18]
< 2 nM | H (H (High permeability)”: A2B (B2A)>5) | H (H (High permeability)”: A2B (B2A)>5) | N (N (Non-substrate)”: ER<2.5) | Cc1n[nH]c2c1N=C(c1c(F)cccc1F)Nc1cnc(-c3cnn(C(F)F)c3)cc1-2 [Example 1, 9-(1-(difluoromethyl)-1H-pyrazol-4-yl)-5-(2,6-difluorophenyl)-3-methyl-1,6-dihydropyrazolo[4,3-d]pyrido[4,3-f][1,3]diazepine]
< 2 nM | H (H (High permeability)”: A2B (B2A)>5) | H (H (High permeability)”: A2B (B2A)>5) | N (N (Non-substrate)”: ER<2.5) | Cc1n[nH]c2c1N=C(c1c(F)cccc1F)Nc1c-2cc(N2CCN(CC(C)(C)F)CC2)nc1C [Example 5, 5-(2,6-difluorophenyl)-9-(4-(2-fluoro-2-methylpropyl)piperazin-1-yl)-3,7-dimethyl-1,6-dihydropyrazolo[4,3-d]pyrido[4,3-f][1,3]diazepine]
< 2 nM | H (H (High permeability)”: A2B (B2A)>5) | H (H (High permeability)”: A2B (B2A)>5) | N (N (Non-substrate)”: ER<2.5) | Cc1n[nH]c2c1N=C(c1c(F)cccc1F)Nc1ccc(N3CCO[C@H](C)C3)cc1-2 [Example 7, (R)-4-(5-(2,6-difluorophenyl)-3-methyl-1,6-dihydrobenzo[d]pyrazolo[3,4-f][1,3]diazepin-9-yl)-2-methylmorpholine]
< 2 nM | H (H (High permeability)”: A2B (B2A)>5) | H (H (High permeability)”: A2B (B2A)>5) | N (N (Non-substrate)”: ER<2.5) | Cc1n[nH]c2c1N=C(c1c(F)cccc1F)Nc1c-2cc(N2CCOCC2)nc1C [Example 8, 4-[8-(2,6-difluorophenyl)-5,11-dimethyl-3,4,7,9,12-pentazatricyclo[8.4.0.02,6]tetradeca-1(10),2(6),4,7,11,13-hexaen-13-yl]morpholine]
< 2 nM | H (H (High permeability)”: A2B (B2A)>5) | H (H (High permeability)”: A2B (B2A)>5) | N (N (Non-substrate)”: ER<2.5) | Cc1n[nH]c2c1N=C(c1c(F)cccc1F)Nc1c-2cc(N2CCN(CCF)CC2)nc1C [Example 9, 8-(2,6-difluorophenyl)-13-[4-(2-fluoroethyl)piperazin-1-yl]-5,11-dimethyl-3,4,7,9,12-pentazatricyclo[8.4.0.02,6]tetradeca-1(10),2(6),4,7,11,13-hexaene]
< 2 nM | H (H (High permeability)”: A2B (B2A)>5) | H (H (High permeability)”: A2B (B2A)>5) | N (N (Non-substrate)”: ER<2.5) | Fc1cccc(F)c1C1=Nc2c(C(F)F)n[nH]c2-c2cc(N3CCOCC3)ncc2N1 [Example 10, 4-[5-(difluoromethyl)-8-(2,6-difluorophenyl)-3,4,7,9,12-pentazatricyclo[8.4.0.02,6]tetradeca-1(10),2(6),4,7,11,13-hexaen-13-yl]morpholine]
< 2 nM | H (H (High permeability)”: A2B (B2A)>5) | H (H (High permeability)”: A2B (B2A)>5) | N (N (Non-substrate)”: ER<2.5) | Cc1n[nH]c2c1N=C(c1c(F)cccc1F)Nc1cnc(-c3ccn(C(F)F)n3)cc1-2 [Example 12, 13-[1-(difluoromethyl)pyrazol-3-yl]-8-(2,6-difluorophenyl)-5-methyl-3,4,7,9,12-pentazatricyclo[8.4.0.02,6]tetradeca-1(10),2(6),4,7,11,13-hexaene]
< 2 nM | H (H (High permeability)”: A2B (B2A)>5) | H (H (High permeability)”: A2B (B2A)>5) | N (N (Non-substrate)”: ER<2.5) | Cc1n[nH]c2c1N=C(c1c(F)cccc1F)Nc1ccc(-c3cnn(C(F)F)c3)cc1-2 [Example 13, 9-[1-(difluoromethyl)pyrazol-4-yl]-5-(2,6-difluorophenyl)-3-methyl-1,6-dihydropyrazolo[4,3-d][1,3]benzodiazepine]
< 2 nM | H (H (High permeability)”: A2B (B2A)>5) | H (H (High permeability)”: A2B (B2A)>5) | N (N (Non-substrate)”: ER<2.5) | Cc1n[nH]c2c1N=C(c1c(F)cccc1F)Nc1c-2cc(N2CCN(CC(F)F)CC2)nc1C [Example 19, 13-[4-(2,2-difluoroethyl)piperazin-1-yl]-8-(2,6-difluorophenyl)-5,11-dimethyl-3,4,7,9,12-pentazatricyclo[8.4.0.02,6]tetradeca-1(10),2(6),4,7,11,13-hexaene]
< 2 nM | H (H (High permeability)”: A2B (B2A)>5) | H (H (High permeability)”: A2B (B2A)>5) | N (N (Non-substrate)”: ER<2.5) | [2H]C1([2H])OC([2H])([2H])C([2H])([2H])N(c2ccc3c(c2)-c2[nH]nc(C)c2N=C(c2c(F)cccc2F)N3)C1([2H])[2H] [Example 22, 2,2,3,3,5,5,6,6-octadeuterio-4-[5-(2,6-difluorophenyl)-3-methyl-1,6-dihydropyrazolo[4,3-d][1,3]benzodiazepin-9-yl]morpholine]
< 2 nM | H (H (High permeability)”: A2B (B2A)>5) | H (H (High permeability)”: A2B (B2A)>5) | N (N (Non-substrate)”: ER<2.5) | Cc1n[nH]c2c1N=C(c1c(F)cccc1F)Nc1c-2cc(N2CCN(CC(F)(F)F)CC2)nc1C [Example 23, 5-(2,6-difluorophenyl)-3,7-dimethyl-9-(4-(2,2,2-trifluoroethyl)piperazin-1-yl)-1,6-dihydropyrazolo[4,3-d]pyrido[4,3-f][1,3]diazepine]

SMILES | IC50 [1] | Caco-2 A2B (10^−6 cm/s) (Caco-2 cells) | Caco-2 B2A (10^−6 cm/s) (Caco-2 cells) | Caco-2 ER (Caco-2 cells)
Cc1n[nH]c2c1N=C(c1c(F)cccc1F)Nc1cnc(C#CC3(C)CCOCC3)cc1-2 [Example 17, 8-(2,6-difluorophenyl)-5-methyl-13-[2-(4-methyltetrahydropyran-4-yl)ethynyl]-3,4,7,9,12-pentazatricyclo[8.4.0.02,6]tetradeca-1(10),2(6),4,7,11,13-hexaene] | < 2 nM | M (M (Moderate permeability)”: 1≤A2B (B2A)≤5) | H (H (High permeability)”: A2B (B2A)>5) | L (L (Likely)”: ER>2.5)

— patent US20240208972A1, “LRRK2 INHIBITORS AND USES THEREOF” (NEURON23, INC., priority 2022, published 2024)
